Our source for the DC50 and Dmax values is patent publication US20260317324A1, “BIFUNCTIONAL COMPOUNDS FOR DEGRADING BRAF VIA UBIQUITIN PROTEOSOME PATHWAY” (Nurix Therapeutics, Inc., priority 2023, published 2026).

Common to all, as to format: cell-based
Experiment [1] has as its target T1, BRAF V600E (Homo sapiens, UniProt P15056, V600E).
T1 construct: endogenous C-terminal HiBiT fusion tag on BRAF V600E allele; endogenous in cells; host or cells: A375 clone 1F10 (CRISPR-Cas9 knock-in of the HiBiT tag; parental A375 from ATCC)
Put plainly: BRAF HiBiT degradation assay, C-terminal HiBiT-tagged BRAF V600E A375 cells (clone 1F10), Nano-Glo HiBiT Lytic assay. Particulars: for Dmax: A-375. Summed up: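 Endogenous BRAF V600E-HiBiT A375 (1F10), 10,000 cells/well, 24 h preculture; cpd 11-pt, 1 μM–0.01 nM half-log, n=2, 0.2% DMSO; HiBiT lytic detection 10 min RT; DC50 = fitted conc at Y=50; Obs. Dmax vs DMSO.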
(With HiBiT, luminescence reflects the tagged protein that the partner subunit can reach.)

Experiment [2] deals with T2, BRAF G466V (Homo sapiens, UniProt P15056, G466V).
T2 construct: Horizon Discovery (HCT-116 BRAF−/− cells); host or cells: HCT-116 BRAF−/− cells, clone 8, lentiviral transduction
T2 sequence (P15056 whole entry G466V): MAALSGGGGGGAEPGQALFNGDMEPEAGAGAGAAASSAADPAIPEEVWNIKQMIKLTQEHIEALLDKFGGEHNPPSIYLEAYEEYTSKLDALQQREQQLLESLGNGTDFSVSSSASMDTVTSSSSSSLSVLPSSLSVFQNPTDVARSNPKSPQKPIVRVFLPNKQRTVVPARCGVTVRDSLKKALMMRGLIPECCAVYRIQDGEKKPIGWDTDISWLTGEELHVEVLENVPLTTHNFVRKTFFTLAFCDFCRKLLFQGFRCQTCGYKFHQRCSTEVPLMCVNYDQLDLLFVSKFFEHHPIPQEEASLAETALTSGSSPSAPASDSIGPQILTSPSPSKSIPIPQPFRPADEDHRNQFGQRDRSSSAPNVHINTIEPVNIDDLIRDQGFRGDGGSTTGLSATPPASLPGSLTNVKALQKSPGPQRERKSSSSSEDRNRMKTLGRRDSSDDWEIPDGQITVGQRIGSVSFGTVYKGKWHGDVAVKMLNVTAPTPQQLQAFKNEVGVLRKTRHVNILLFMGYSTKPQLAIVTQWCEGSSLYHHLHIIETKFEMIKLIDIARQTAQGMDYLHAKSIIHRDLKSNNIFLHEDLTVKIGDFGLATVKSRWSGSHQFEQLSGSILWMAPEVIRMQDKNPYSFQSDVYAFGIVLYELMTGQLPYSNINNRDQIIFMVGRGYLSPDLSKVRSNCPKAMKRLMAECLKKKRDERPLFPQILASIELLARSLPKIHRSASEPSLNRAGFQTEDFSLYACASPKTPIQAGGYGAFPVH
Put plainly: BRAF HiBiT degradation assay, C-terminal HiBiT-tagged BRAF G466V overexpressed in HCT-116 BRAF−/− cells (clone 8), Nano-Glo HiBiT Lytic assay. A digest of the protocol:
(§1)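 Luminescence from the lytic HiBiT reagent, read after 10 min at room temperature, measured tagged BRAF remaining in lentivirally transduced HCT-116 BRAF−/− cells. Compounds were tested from 1 μM to 0.01 nM in half-log steps at 0.2% DMSO. DC50 values were fitted at 50% remaining.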

In experiment [3] the target is T3, BRAF G469A (Homo sapiens, UniProt P15056, G469A).
T3 construct: Horizon Discovery (HCT-116 BRAF−/− cells); host or cells: HCT-116 BRAF−/− cells, clone 34, lentiviral transduction
T3 sequence (P15056 whole entry G469A): as the sequence (P15056 whole entry G466V) above, with V466G, G469A counted along it
Put plainly: BRAF HiBiT degradation assay, C-terminal HiBiT-tagged BRAF G469A overexpressed in HCT-116 BRAF−/− cells (clone 34), Nano-Glo HiBiT Lytic assay. A digest of the protocol: as §1

For experiment [4], the target named is T4, BRAF D594G (Homo sapiens, UniProt P15056, D594G).
T4 construct: Horizon Discovery (HCT-116 BRAF−/− cells); host or cells: HCT-116 BRAF−/− cells, clone 63, lentiviral transduction
T4 sequence (P15056 whole entry D594G): as the sequence (P15056 whole entry G466V) above, with V466G, D594G counted along it
Put plainly: BRAF HiBiT degradation assay, C-terminal HiBiT-tagged BRAF D594G overexpressed in HCT-116 BRAF−/− cells (clone 63), Nano-Glo HiBiT Lytic assay. A digest of the protocol:
as §1

Setting [5] is: A375 (BRAF V600E, Class 1), DC50 at 50% degradation.
[6] abbreviates: A375 (BRAF V600E, Class 1), observed Dmax, % protein degraded relative to DMSO control.
Setting [7] is: BRAF G466V (Class 3), HCT-116 BRAF−/− cells, DC50 at 50% degradation.
Where [8] appears, read: BRAF G466V (Class 3), HCT-116 BRAF−/− cells, observed Dmax relative to DMSO control.
The mark [9] stands for this setting: BRAF G469A (Class 2), HCT-116 BRAF−/− cells, DC50 at 50% degradation.
Where [10] appears, read: BRAF G469A (Class 2), HCT-116 BRAF−/− cells, observed Dmax relative to DMSO control.
Where [11] appears, read: BRAF D594G (Class 3), HCT-116 BRAF−/− cells, DC50 at 50% degradation.
The mark [12] stands for this setting: BRAF D594G (Class 3), HCT-116 BRAF−/− cells, observed Dmax relative to DMSO control.

T1 sequence (P15056 whole entry V600E, the tested form may be a part): as the sequence (P15056 whole entry G466V) above, with V466G, V600E counted along it

With `O=C1CC[C@H](c2ccc(N3CCC(CN4CCN(c5ccc(-n6cc(-c7cc(Cl)cc(NS(=O)(=O)N8CCCC8)c7F)c(-c7ccncc7)n6)nc5)CC4)CC3)cc2)C(=O)N1` [Compound 286, N-{5-chloro-3-[1-(5-{4-[(1-{4-[(3R)-2,6-dioxopiperidin-3-yl]phenyl}piperidin-4-yl)methyl]piperazin-1-yl}pyridin-2-yl)-3-(pyridin-4-yl)-1H-pyrazol-4-yl]-2-fluorophenyl}pyrrolidine-1-sulfonamide], the DC50 in experiment [1] (setting [5]) is under 10 nM; in experiment [2] (setting [7]), under 10 nM; in experiment [3] (setting [9]) it was 10 to 50 nM; in experiment [4] (setting [11]), under 10 nM. The Dmax in experiment [1] (setting [6]) is over 70%; in experiment [2] (setting [8]), over 70%; in experiment [3] (setting [10]), 30 to 70%; in experiment [4] (setting [12]), over 70%.

`O=C1CC[C@H](c2ccc(N3CCC(CN4CCN(c5ccc(-n6cc(-c7cc(Cl)cc(NS(=O)(=O)N8CC[C@@H](F)C8)c7F)c(-c7ccncc7)n6)cc5F)CC4)CC3)cc2)C(=O)N1` [Compound 367, (3R)—N-{5-chloro-3-[1-(4-{4-[(1-{4-[(3R)-2,6-dioxopiperidin-3-yl]phenyl}piperidin-4-yl)methyl]piperazin-1-yl}-3-fluorophenyl)-3-(pyridin-4-yl)-1H-pyrazol-4-yl]-2-fluorophenyl}-3-fluoropyrrolidine-1-sulfonamide]: the DC50 in experiment [1] (setting [5]), in experiment [2] (setting [7]), in experiment [3] (setting [9]) and in experiment [4] (setting [11]) was under 10 nM throughout. The Dmax in experiment [1] (setting [6]), in experiment [2] (setting [8]), in experiment [3] (setting [10]) and in experiment [4] (setting [12]) was over 70% throughout.

As for `C[C@@H]1CN(c2ccc(-n3cc(-c4cc(Cl)cc(NS(=O)(=O)N5CCCC5)c4F)c(-c4ccncc4)n3)nc2)CCN1CC1CCN(c2ccc(N3CCC(=O)NC3=O)cc2)CC1` [Compound 324, N-[5-chloro-3-(1-{5-[(3R)-4-({1-[4-(2,4-dioxo-1,3-diazinan-1-yl)phenyl]piperidin-4-yl}methyl)-3-methylpiperazin-1-yl]pyridin-2-yl}-3-(pyridin-4-yl)-1H-pyrazol-4-yl)-2-fluorophenyl]pyrrolidine-1-sulfonamide], the half-maximal degradation concentration (DC50) in experiment [1] (setting [5]) is under 10 nM; in experiment [2] (setting [7]) it was under 10 nM; in experiment [3] (setting [9]) it was 50 to 500 nM; in experiment [4] (setting [11]), under 10 nM. Also, the greatest degradation seen (Dmax) in experiment [1] (setting [6]) was over 70%; in experiment [2] (setting [8]), 30 to 70%; in experiment [3] (setting [10]) it was 30 to 70%; in experiment [4] (setting [12]), 30 to 70%.

In the case of `CCCS(=O)(=O)Nc1cccc(-c2nc(C3CCN(C(=O)C4(C)CCN(C(=O)C5CCN(c6ccc(C7CCC(=O)NC7=O)cn6)CC5)CC4)CC3)sc2-c2ccncn2)c1F` (racemic) [Compound 181, Rac-N-[3-(2-{1-[1-(1-{5-[(3R)-2,6-dioxopiperidin-3-yl]pyridin-2-yl}piperidine-4-carbonyl)-4-methylpiperidine-4-carbonyl]piperidin-4-yl}-5-(pyrimidin-4-yl)-1,3-thiazol-4-yl)-2-fluorophenyl]propane-1-sulfonamide], the half-maximal degradation concentration (DC50) in experiment [1] (A375 (BRAF V600E), DC50 at 50%: fitted conc. at Y=50) was under 10 nM; in experiment [2] (BRAF G466V, DC50 at 50%: fitted conc. at Y=50), under 10 nM; in experiment [3] (Class 2, BRAF G469A, DC50 at 50%: fitted conc. at Y=50), over 500 nM; in experiment [4] (BRAF D594G, DC50 at 50%: fitted conc. at Y=50) it was under 10 nM. For the same compound, the Dmax was over 70% in experiment [1] (A375 (BRAF V600E), percentage protein degraded at maximal compound effect relative to DMSO); over 70% in experiment [2] (HCT-116, BRAF G466V, percentage protein degraded at maximal compound effect relative to DMSO); 30 to 70% in experiment [3] (HCT-116, Class 2, BRAF G469A, percentage protein degraded at maximal compound effect relative to DMSO); over 70% in experiment [4] (HCT-116, BRAF D594G, percentage protein degraded at maximal compound effect relative to DMSO).

On to `CCC(C)S(=O)(=O)Nc1cc(Cl)cc(-c2cn(-c3ccc(N4CCN(CC5CCN(c6ccc([C@H]7CCC(=O)NC7=O)cc6)CC5)CC4)cc3)nc2-c2ccncc2)c1F` (mixture of isomers) [Compound 330, (2RS)—N-{5-chloro-3-[1-(4-{4-[(1-{4-[(3R)-2,6-dioxopiperidin-3-yl]phenyl}piperidin-4-yl)methyl]piperazin-1-yl}phenyl)-3-(pyridin-4-yl)-1H-pyrazol-4-yl]-2-fluorophenyl}butane-2-sulfonamide], for which the DC50 in experiment [1] (setting [5]) is under 10 nM; in experiment [2] (setting [7]), under 10 nM; in experiment [3] (setting [9]), 10 to 50 nM; in experiment [4] (setting [11]), under 10 nM. Further, the maximal degradation (Dmax) in experiment [1] (setting [6]) is over 70%; in experiment [2] (setting [8]), over 70%; in experiment [3] (setting [10]), 30 to 70%; in experiment [4] (setting [12]), 30 to 70%.

The term DC50 denotes the midpoint of the concentration-degradation curve. Low values mean degradation at low concentration, high ones degradation only at high concentration. As a reminder, the Dmax is the largest share of the target that was removed. Low values mean shallow degradation, high ones deep degradation.
